Data: PubChem BioAssay (NCI)
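Test compounds were applied to cells in 96-well plates for 48 hours at 5 doses. Definition used: TGI = concentration required for complete inhibition of growth.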

Assays:
Assay in all cases: inhibition of tumour cell growth, NCI panel, 48 h
[1] = tested on: MDA-MB-231 breast
[2] = tested on: SNB-19 CNS
[3] = tested on: SK-MEL-28 melanoma
[4] = tested on: OVCAR-4 ovarian
[5] = tested on: NCI/ADR-RES ovarian
[6] = tested on: EKVX NSCLC
[7] = tested on: HT29 colon
[8] = tested on: UACC-257 melanoma
[9] = tested on: MCF7 breast
[10] = tested on: RPMI-8226 leukemia
[11] = tested on: SW-620 colon
[12] = tested on: DU-145 prostate
[13] = tested on: LOX IMVI melanoma
[14] = tested on: OVCAR-5 ovarian
[15] = tested on: NCI-H460 lung
[16] = tested on: CCRF-CEM leukemia
[17] = tested on: U251 CNS
[18] = tested on: MALME-3M melanoma
[19] = tested on: SK-MEL-5 melanoma
[20] = tested on: M14 melanoma
[21] = tested on: SF-295 CNS
[22] = tested on: MOLT-4 leukemia
[23] = tested on: UO-31 renal
[24] = tested on: UACC-62 melanoma
[25] = tested on: KM12 colon
[26] = tested on: CAKI-1 renal
[27] = tested on: COLO 205 colon
[28] = tested on: MDA-N
[29] = tested on: HS 578T breast
[30] = tested on: SF-539 CNS
[31] = tested on: NCI-H23 lung
[32] = tested on: HOP-92 NSCLC
[33] = tested on: SK-MEL-2 melanoma
[34] = tested on: HCT-116 colon
[35] = tested on: ACHN renal
[36] = tested on: TK-10 renal
[37] = tested on: PC-3 prostate
[38] = tested on: A498 renal
[39] = tested on: SNB-75 CNS
[40] = tested on: 786-0 renal
[41] = tested on: HCT-15 colon
[42] = tested on: SR leukemia
[43] = tested on: SF-268 CNS
[44] = tested on: A549 NSCLC
[45] = tested on: HL-60(TB) leukemia
[46] = tested on: NCI-H522 lung
[47] = tested on: IGROV1 ovarian
[48] = tested on: OVCAR-8 ovarian
[49] = tested on: SN12C renal
[50] = tested on: MDA-MB-435
[51] = tested on: NCI-H226 lung
[52] = tested on: BT-549 breast
[53] = tested on: OVCAR-3 ovarian
[54] = tested on: HOP-62 NSCLC
[55] = tested on: HCC-2998 colon
[56] = tested on: SK-OV-3 ovarian
[57] = tested on: K-562 leukemia
[58] = tested on: RXF 393 renal

Measured: TGI

CN(CC(=O)O)c1ncc2c(n1)-c1ccccc1SC2
not listed: [51] | [52] | [53] | [54] | [55] | [56] | [57] | [58]
> 100 µM: all other assays above

CN=c1nc2sc3c(c2c(NC(=S)NC)s1)CCCC3
82.9 µM: [58]
87.5 µM: [43]
97.4 µM: [29]
not listed: [5] | [20] | [30] | [39] | [44] | [48]
> 100 µM: all other assays above
